Type in all cases: cell-based
Assay [1] relates to Pectobacterium carotovorum. As to conditions: Pectobacterium carotovorum; for MIC (>90% inhibition): 1-2 days at 25° C.; for LC (lethal concentration, 100% inhibition): at least 4 days of incubation. Here is the method:
(§1) In-vitro inhibition assays were performed in sterile flat-bottom 96-well plates (Greiner bio-one, Frickenhausen). Antimicrobial peptides were dissolved in 0.01% acetic acid containing 0.2% BSA (500 μg/ml), filter sterilized and stored at −20° C. For inhibition assays dilutions of peptides ranging from 5 to 200 μg/ml were prepared and 10 μl (antibacterial assay) or 20 (antifungal assay) of each concentration was loaded per well.
(§2) Bacteria colonies from overnight agar plate cultures were resuspended into 5 ml LB-medium or HPG-medium (OD600 nm=0.08-0.1) and diluted into LB-medium/HPG-medium (1:100). 90 μl of this suspension containing about 10^5-10^6 CFU/ml of tested bacteria were added to each well resulting in final peptide concentrations of 0, 0.5, 1, 2, 5, 10, and 20 μg/ml. […] The lowest concentration, in which there is no observable growth (>90% inhibition) is referred to as minimal inhibitory concentration (MIC). […] For each peptide concentration two identical inhibition assays were performed.

Another assay deals with Pseudomonas corrugata. As to conditions: Pseudomonas corrugata; for MIC (>90% inhibition): 1-2 days at 25° C.; for LC (lethal concentration, 100% inhibition): at least 4 days of incubation. Here is the method:
as §1, §2

Assay [2] relates to Pseudomonas syringae pv. syringae. The settings on record: Pseudomonas syringae pv. syringae; for MIC (>90% inhibition): 1-2 days at 25° C.; for LC (lethal concentration, 100% inhibition): at least 4 days of incubation. How it is done: as §1, §2
The test system of assay [3] is Pseudomonas syringae pv. tomato. As to conditions: for LC (lethal concentration, 100% inhibition): at least 4 days of incubation. Here is the method: as §1, §2
Assay [4] deals with Clavibacter michiganensis. Briefly: In-vitro inhibition assay (MIC and LC), Example 3. The settings on record: for MIC (>90% inhibition): 1-2 days at 25° C.; for LC (lethal concentration, 100% inhibition): at least 4 days of incubation. Here is the method: as §1, §2
The subject of another assay is Xanthomonas vesicatoria. Briefly: In-vitro inhibition assay (MIC and LC), Example 3. As to conditions: for MIC (>90% inhibition): 1-2 days at 25° C.; for LC (lethal concentration, 100% inhibition): at least 4 days of incubation. How it is done: as §1, §2
[5] abbreviates: Pseudomonas syringae pv. tomato, 1-2 days at 25° C.
Where [6] appears, read: Pseudomonas syringae pv. tomato.

Like-named read-outs stand apart in the source and are kept apart here. No end group written: not given here.

Regarding KKKKKKIIKKII-NH2 [SP1-22], the “MIC (>90% inhibition)” value in assay [1] is >10/>10 μg/ml; in the assay on Pseudomonas corrugata it was >10/>10 μg/ml; in assay [2] it was 2.5 µg/mL; in assay [3] (setting [5]), 1.0 µg/mL; in assay [4] it was >10/>10 μg/ml; against Xanthomonas vesicatoria it was >10/>10 μg/ml. Further, the “LC (lethal concentration, 100% inhibition)” value in assay [1] was >10/>10 μg/ml; in the assay on Pseudomonas corrugata, >10/>10 μg/ml; in assay [2], 10 µg/mL; in assay [3] (setting [6]) it was 5.0 µg/mL; in assay [4], >10/>10 μg/ml; in the assay with Xanthomonas vesicatoria, >10/>10 μg/ml.

KKKKIIKRLI-NH2 [SP1-17]: the “MIC (>90% inhibition)” value in assay [1] was >10/>10 μg/ml; against Pseudomonas corrugata, 5.0 µg/mL; in assay [2] it was less than 0.1 µg/mL; in assay [3] (setting [5]), 1.0/1.0 μg/ml; in assay [4], >10/>10 μg/ml; with Xanthomonas vesicatoria, >10/>10 μg/ml. Further, the “LC (lethal concentration, 100% inhibition)” value in assay [1] is >10/>10 μg/ml; in the assay with Pseudomonas corrugata, greater than 10 µg/mL; in assay [2] it was greater than 10 µg/mL; in assay [3] (setting [6]), 1.0/1.0 μg/ml; in assay [4], >10/>10 μg/ml; in the assay on Xanthomonas vesicatoria it was >10/>10 μg/ml.

In the case of RKKRLKLLKRLL-NH2 [SP1-1], the “LC (lethal concentration, 100% inhibition)” value in assay [1] is >10/>10 μg/ml; in the assay with Pseudomonas corrugata, 0.25 µg/mL; in assay [2], 0.1/0.1 μg/ml; in assay [3] (setting [6]) it was >10/>10 μg/ml; in assay [4], 2.5/2.5 μg/ml; in the assay with Xanthomonas vesicatoria, 0.25 µg/mL. The “MIC (>90% inhibition)” value with Pseudomonas corrugata was less than 0.1 µg/mL; in assay [2] it was 0.1/0.1 μg/ml; in assay [3], >10/>10 μg/ml; in assay [4], 2.5/2.5 μg/ml; in the assay on Xanthomonas vesicatoria, 0.1 µg/mL.

With RKKRVKLLKRLV-NH2 [SP1-2], the “MIC (>90% inhibition)” value is >10/>10 μg/ml in assay [1]; 0.5 µg/mL in the assay on Pseudomonas corrugata; 2.5 µg/mL in assay [2]; 5.0/5.0 μg/ml in assay [3] (setting [5]); 10/>10 μg/ml in assay [4]; 5.0 µg/mL in the assay on Xanthomonas vesicatoria. The “LC (lethal concentration, 100% inhibition)” value in assay [1] was >10/>10 μg/ml; with Pseudomonas corrugata, 2.5 µg/mL; in assay [2], 5.0 µg/mL; in assay [3] (setting [6]), 5.0/5.0 μg/ml; in assay [4], 10/>10 μg/ml; with Xanthomonas vesicatoria it was greater than 10 µg/mL.

Regarding KRKKLLKRLL-NH2 [SP1-15], the “MIC (>90% inhibition)” value is >10/>10 μg/ml in assay [1]; <0.1/<0.1 μg/ml with Pseudomonas corrugata; 0.1 µg/mL in assay [2]; 1.0/1.0 μg/ml in assay [3] (setting [5]); 5.0/5.0 μg/ml in assay [4]; 5.0/5.0 μg/ml against Xanthomonas vesicatoria. The “LC (lethal concentration, 100% inhibition)” value in assay [1] was >10/>10 μg/ml; with Pseudomonas corrugata it was <0.1/<0.1 μg/ml; in assay [2], 1.0 µg/mL; in assay [3] (setting [6]), 1.0/1.0 μg/ml; in assay [4], 5.0/5.0 μg/ml; in the assay with Xanthomonas vesicatoria it was 5.0/5.0 μg/ml.

On to RKKKFKIFKRLF-NH2 [SP1-14], for which the “MIC (>90% inhibition)” value in assay [1] was >10/>10 μg/ml; with Pseudomonas corrugata, 0.5 µg/mL; in assay [2] it was less than 0.1 µg/mL; in assay [3], 1.0 to 5.0 µg/mL; in assay [4] it was 1.0 µg/mL; against Xanthomonas vesicatoria, 1.0 µg/mL. The “LC (lethal concentration, 100% inhibition)” value in assay [1] was >10/>10 μg/ml; in the assay on Pseudomonas corrugata, 1.0 µg/mL; in assay [2], 0.5 µg/mL; in assay [4], 2.5 µg/mL; in the assay with Xanthomonas vesicatoria it was 2.5 µg/mL.

Consider RKKKLKFFKRLF-NH2 [Sp1-11], for which the “MIC (>90% inhibition)” value in assay [1] is >10/>10 μg/ml; against Pseudomonas corrugata it was 0.25 µg/mL; in assay [2] it was 1.0 µg/mL; in assay [3] (setting [5]), >10/>10 μg/ml; in assay [4], 2.5 µg/mL; in the assay on Xanthomonas vesicatoria, 2.5 µg/mL. For the same substance, the “LC (lethal concentration, 100% inhibition)” value in assay [1] was >10/>10 μg/ml; in the assay with Pseudomonas corrugata it was 1.0 µg/mL; in assay [2], 2.5 µg/mL; in assay [3] (setting [6]), >10/>10 μg/ml; in assay [4] it was 5.0 µg/mL; in the assay on Xanthomonas vesicatoria, 10 µg/mL.

For the substance RKKKIKIIKKII-NH2 [SP1-9], the “MIC (>90% inhibition)” value in assay [1] is >10/>10 μg/ml; against Pseudomonas corrugata, 5.0/5.0 μg/ml; in assay [2], 0.5 µg/mL; in assay [3] (setting [5]), 5.0 µg/mL; in assay [4] it was 2.5 µg/mL; against Xanthomonas vesicatoria, 2.5/2.5 μg/ml. Also, the “LC (lethal concentration, 100% inhibition)” value in assay [1] was >10/>10 μg/ml; in the assay with Pseudomonas corrugata it was 5.0/5.0 μg/ml; in assay [2], 1.0 µg/mL; in assay [3] (setting [6]) it was 10 µg/mL; in assay [4], 10 µg/mL; in the assay with Xanthomonas vesicatoria, 2.5/2.5 μg/ml.

With RKKKFKFFKRLF-NH2 [SP1-12], the “MIC (>90% inhibition)” value in assay [1] is >10/>10 μg/ml; against Pseudomonas corrugata it was 0.25 µg/mL; in assay [2], 0.1 µg/mL; in assay [3] (setting [5]) it was >10/>10 μg/ml; in assay [4], 0.5/0.5 μg/ml; with Xanthomonas vesicatoria, 0.5 µg/mL. Besides, the “LC (lethal concentration, 100% inhibition)” value is >10/>10 μg/ml in assay [1]; 0.5 µg/mL with Pseudomonas corrugata; 0.5 µg/mL in assay [2]; >10/>10 μg/ml in assay [3] (setting [6]); 0.5/0.5 μg/ml in assay [4]; 2.5 µg/mL with Xanthomonas vesicatoria.

RKKRKKLLKRLL-NH2 [SP1-18]: the “MIC (>90% inhibition)” value in assay [1] was >10/>10 μg/ml; in the assay with Pseudomonas corrugata, 0.25 µg/mL; in assay [2], 0.1 µg/mL; in assay [3] (setting [5]), 1.0 µg/mL; in assay [4] it was 5.0/5.0 μg/ml; with Xanthomonas vesicatoria, 5.0 µg/mL. Also, the “LC (lethal concentration, 100% inhibition)” value in assay [1] is >10/>10 μg/ml; with Pseudomonas corrugata, 0.5 µg/mL; in assay [2] it was 5.0 µg/mL; in assay [3] (setting [6]) it was 0.5 µg/mL; in assay [4], 5.0/5.0 μg/ml; in the assay on Xanthomonas vesicatoria, 10 µg/mL.

Turning to RKKKAKIIKKII-NH2 [SP1-10], the “MIC (>90% inhibition)” value was >10/>10 μg/ml in assay [1]; 10/10 μg/ml in the assay with Pseudomonas corrugata; 1.0 µg/mL in assay [2]; >10/>10 μg/ml in assay [3] (setting [5]); >10/>10 μg/ml in assay [4]; >10/>10 μg/ml with Xanthomonas vesicatoria. For the same substance, the “LC (lethal concentration, 100% inhibition)” value in assay [1] was >10/>10 μg/ml; in the assay on Pseudomonas corrugata, 10/10 μg/ml; in assay [2] it was 5.0 µg/mL; in assay [3] (setting [6]), >10/>10 μg/ml; in assay [4] it was >10/>10 μg/ml; in the assay on Xanthomonas vesicatoria it was >10/>10 μg/ml.

Consider RKKRKKLLKRLI-NH2 [SP1-20], for which the “MIC (>90% inhibition)” value in assay [1] was >10/>10 μg/ml; in the assay on Pseudomonas corrugata, 0.5/0.5 μg/ml; in assay [2] it was 0.25 µg/mL; in assay [3] (setting [5]), 10/>10 μg/ml; in assay [4] it was 5.0 µg/mL; against Xanthomonas vesicatoria, 10/>10 μg/ml. Also, the “LC (lethal concentration, 100% inhibition)” value is >10/>10 μg/ml in assay [1]; 0.5/0.5 μg/ml in the assay on Pseudomonas corrugata; 10 µg/mL in assay [2]; 10/>10 μg/ml in assay [3] (setting [6]); 10 µg/mL in assay [4]; 10/>10 μg/ml in the assay on Xanthomonas vesicatoria.

Source of the values: patent US20110294722A1, “ANTIMICROBIAL PEPTIDES” (priority 2008, published 2011).
